Reference: patent US12257224B2, “Methods of administration for highly water-soluble salts of a short acting phenylalkylamine calcium channel blocker” (Milestone Pharmaceuticals Inc., priority 2021, dated 2025)
Where two headings read alike, the source gives them in different places.

How the values were obtained:
[1] = Permeation of compound I through the nasal epithelium with EDTA in the formulation
Text: The nasal vestibule, which accounts for approximately 3-4% of the surface area of the nasal cavity, lacks tight junctions altogether and is thus not affected by calcium chelating agents. […] As such, it has been postulated that the nasal epithelium is not susceptible to permeability modulation by EDTA (Aungst, et al., Pharma. Res., 1998, 5:305-308). Additionally, the ability of EDTA to increase permeation of a compound through the nasal epithelium is attenuated as the molecular weight of the compound increases (Nakanishi, et al., Chem. Pharm. Bull., 1984, 32:1628-1632).

[2] = Phase 1 study (doses up to 140 mg; PR interval, MFD, TEAEs); format: in vivo, human
[3] = system: PSVT; assay: Example 5: heart rate during PSVT prior to conversion to sinus rhythm; format: in vivo, human
Text: Each PSVT was documented by an ambulatory cardiac monitoring system that was placed on the chest after symptoms began. Baseline (average of four values before drug administration), and every minute of heart rate data were captured from baseline until one minute before the PSVT was converted to sinus rhythm. […]

[4] = Example 7: PK analysis, serum concentration after one vs two 70 mg nasal doses; format: in vivo, human; design: serum concentration, Median: unit not given here; conditions: for concentration at 13 min / concentration at 15 min: human, serum, other: nasal
Protocol: The serum concentration of compound I over time from the first administration for the study arm with a single 70 mg dose administration of compound I was compared with the study arm with two 70 mg dose administrations of compound I. The second 70 mg dose of compound I was administered approximately 10 minutes after the first dose.

[5] = patients who converted to sinus rhythm
[6] = one 70 mg nasal dose, Time 10.5
[7] = one 70 mg nasal dose, Time 11.5
[8] = one 70 mg nasal dose, Time 1450
[9] = two 70 mg nasal doses, second approximately 10 minutes after first, Time 7
[10] = two 70 mg nasal doses, second approximately 10 minutes after first, Time 9
[11] = two 70 mg nasal doses, second approximately 10 minutes after first, Time 10.5
[12] = two 70 mg nasal doses, second approximately 10 minutes after first, Time 11.5

## COC(=O)c1cccc(CCN(C)CCCC(C#N)(c2ccc(OC)c(OC)c2)C(C)C)c1 (stereo not shown) [compound I, methyl 3-(2-((4-cyano-4-(3,4-dimethoxyphenyl)-5-methylhexyl)(methyl)amino)ethyl)benzoate]
[1]
  permeation through the nasal epithelium: increased the permeation of compound I through the nasal epithelium
[2]; 4 highest doses tested: 30, 60, 105 and 140 mg
  PR interval of the ECG: produced an increase in the PR interval of the ECG
[2]; doses higher than 70 mg
  Treatment Emergent Adverse Effects (TEAEs): an increase in Treatment Emergent Adverse Effects (TEAEs), mainly related to nasal irritation
[2]; two 30 mg doses 10 minutes apart vs single 30 mg dose
  drug exposure and PR interval: drug exposure and PR interval increased and remained elevated for a longer period
[3]; 70 mg, 3 min, during PSVT
  mean change in heart rate from baseline (±SE): −10 bpm
[3]; 70 mg, 10 min, during PSVT
  mean change in heart rate from baseline (±SE): −16 bpm
[3]; 70 mg, 30 min, during PSVT
  mean change in heart rate from baseline (±SE): −14 bpm
[3]; 70 mg, 40 min, during PSVT
  mean change in heart rate from baseline (±SE): −13 bpm
[3]; 70 mg, during PSVT
  persistence of decrease in heart rate: sustained through the 60-minute observation period
[3]; 70 mg, within the first minute, during PSVT
  mean change in heart rate from baseline (±SE): −5 bpm
[3]; [5]
  maximal change from baseline in heart rate, converters to sinus rhythm in <30 minutes versus >30 minutes: significant difference
  maximal change from baseline in heart rate, converters to sinus rhythm in <60 minutes versus >60 minutes: significant difference
[4]; two 70 mg nasal doses, second approximately 10 minutes after first, Time 13, read-out: serum concentration, Max
  concentration at 13 min: 320 ng/mL
[4]; two 70 mg nasal doses, second approximately 10 minutes after first, Time 13, read-out: serum concentration, Mean
  concentration at 13 min: 115 ng/mL
[4]; two 70 mg nasal doses, second approximately 10 minutes after first, Time 13, read-out: serum concentration, Median
  concentration at 13 min: 93.6 ng/mL
[4]; two 70 mg nasal doses, second approximately 10 minutes after first, Time 13, read-out: serum concentration, Min
  concentration at 13 min: 22.5 ng/mL
[4]; two 70 mg nasal doses, second approximately 10 minutes after first, Time 15, read-out: serum concentration, Max
  concentration at 15 min: 317 ng/mL
[4]; two 70 mg nasal doses, second approximately 10 minutes after first, Time 15, read-out: serum concentration, Mean
  concentration at 15 min: 110 ng/mL
[4]; two 70 mg nasal doses, second approximately 10 minutes after first, Time 15, read-out: serum concentration, Median
  concentration at 15 min: 76.9 ng/mL
[4]; two 70 mg nasal doses, second approximately 10 minutes after first, Time 15, read-out: serum concentration, Min
  concentration at 15 min: 25.2 ng/mL
[4]; one 70 mg nasal dose, Time 0
  serum concentration, Max: 0 ng/mL
  serum concentration, Mean: 0.00
  serum concentration, Median: 0.00
  serum concentration, Min: 0.00
[4]; one 70 mg nasal dose, Time 0.5
  serum concentration, Max: 0 ng/mL
  serum concentration, Mean: 0.00
  serum concentration, Median: 0.00
  serum concentration, Min: 0.00
[4]; one 70 mg nasal dose, Time 1.5
  serum concentration, Mean: 11.79
  serum concentration, Median: 5.20
  serum concentration, Min: 0.00
[4]; one 70 mg nasal dose, Time 1.5, in ng/mL
  serum concentration, Max: 56.12
[4]; one 70 mg nasal dose, Time 3
  serum concentration, Mean: 62.82
  serum concentration, Median: 32.60
  serum concentration, Min: 11.45
[4]; one 70 mg nasal dose, Time 3, in ng/mL
  serum concentration, Max: 205.27
[4]; one 70 mg nasal dose, Time 5
  serum concentration, Mean: 90.64
  serum concentration, Median: 67.70
  serum concentration, Min: 21.18
[4]; one 70 mg nasal dose, Time 5, in ng/mL
  serum concentration, Max: 191.63
[4]; one 70 mg nasal dose, Time 7
  serum concentration, Mean: 83.04
  serum concentration, Median: 74.22
  serum concentration, Min: 28.61
[4]; one 70 mg nasal dose, Time 7, in ng/mL
  serum concentration, Max: 152.59
[4]; one 70 mg nasal dose, Time 9
  serum concentration, Mean: 73.39
  serum concentration, Median: 69.68
  serum concentration, Min: 25.94
[4]; one 70 mg nasal dose, Time 9, in ng/mL
  serum concentration, Max: 130.50
[4]; [6]
  serum concentration, Mean: 67.95
  serum concentration, Median: 59.91
  serum concentration, Min: 30.24
[4]; one 70 mg nasal dose, Time 10.5, in ng/mL
  serum concentration, Max: 121.45
[4]; [7]
  serum concentration, Mean: 66.91
  serum concentration, Median: 59.09
  serum concentration, Min: 31.61
[4]; one 70 mg nasal dose, Time 11.5, in ng/mL
  serum concentration, Max: 119.67
[4]; one 70 mg nasal dose, Time 13
  serum concentration, Mean: 62.34
  serum concentration, Median: 59.07
  serum concentration, Min: 29.29
[4]; one 70 mg nasal dose, Time 13, in ng/mL
  serum concentration, Max: 103.40
[4]; one 70 mg nasal dose, Time 15
  serum concentration, Mean: 57.44
  serum concentration, Median: 52.11
  serum concentration, Min: 26.98
[4]; one 70 mg nasal dose, Time 15, in ng/mL
  serum concentration, Max: 111.44
[4]; one 70 mg nasal dose, Time 17
  serum concentration, Mean: 50.32
  serum concentration, Median: 41.80
  serum concentration, Min: 26.92
[4]; one 70 mg nasal dose, Time 17, in ng/mL
  serum concentration, Max: 90.05
[4]; one 70 mg nasal dose, Time 20
  serum concentration, Mean: 49.43
  serum concentration, Median: 46.51
  serum concentration, Min: 22.74
[4]; one 70 mg nasal dose, Time 20, in ng/mL
  serum concentration, Max: 80.55
[4]; one 70 mg nasal dose, Time 25
  serum concentration, Mean: 41.86
  serum concentration, Median: 42.30
  serum concentration, Min: 19.26
[4]; one 70 mg nasal dose, Time 25, in ng/mL
  serum concentration, Max: 66.12
[4]; one 70 mg nasal dose, Time 35
  serum concentration, Mean: 33.35
  serum concentration, Median: 36.90
  serum concentration, Min: 15.09
[4]; one 70 mg nasal dose, Time 35, in ng/mL
  serum concentration, Max: 51.52
[4]; one 70 mg nasal dose, Time 60
  serum concentration, Mean: 20.41
  serum concentration, Median: 22.06
  serum concentration, Min: 8.89
[4]; one 70 mg nasal dose, Time 60, in ng/mL
  serum concentration, Max: 31.10
[4]; one 70 mg nasal dose, Time 100
  serum concentration, Mean: 13.91
  serum concentration, Median: 12.75
  serum concentration, Min: 6.20
[4]; one 70 mg nasal dose, Time 100, in ng/mL
  serum concentration, Max: 23.24
[4]; one 70 mg nasal dose, Time 240
  serum concentration, Mean: 5.90
  serum concentration, Median: 5.91
  serum concentration, Min: 1.48
[4]; one 70 mg nasal dose, Time 240, in ng/mL
  serum concentration, Max: 11.01
[4]; one 70 mg nasal dose, Time 370
  serum concentration, Max: 6.08 ng/mL
  serum concentration, Mean: 2.49
  serum concentration, Median: 2.51
  serum concentration, Min: 0.00
[4]; one 70 mg nasal dose, Time 730
  serum concentration, Max: 3.17 ng/mL
  serum concentration, Mean: 0.76
  serum concentration, Median: 0.00
  serum concentration, Min: 0.00
[4]; [8]
  serum concentration, Max: 1.2 ng/mL
  serum concentration, Mean: 0.10
  serum concentration, Median: 0.00
  serum concentration, Min: 0.00
[4]; second dose approximately 10 minutes after the first
  serum concentration, two 70 mg doses vs single 70 mg dose: raised the serum concentration of compound I above that observed with a single 70 mg dose
[4]; [9]
  serum concentration, Mean: 85.77
  serum concentration, Median: 91.42
  serum concentration, Min: 17.16
[4]; two 70 mg nasal doses, second approximately 10 minutes after first, Time 7, in ng/mL
  serum concentration, Max: 180.76
[4]; [10]
  serum concentration, Mean: 73.20
  serum concentration, Median: 77.41
  serum concentration, Min: 15.37
[4]; two 70 mg nasal doses, second approximately 10 minutes after first, Time 9, in ng/mL
  serum concentration, Max: 144.91
[4]; [11]
  serum concentration, Mean: 65.97
  serum concentration, Median: 65.18
  serum concentration, Min: 14.49
[4]; two 70 mg nasal doses, second approximately 10 minutes after first, Time 10.5, in ng/mL
  serum concentration, Max: 143.87
[4]; [12]
  serum concentration, Mean: 96.77
  serum concentration, Median: 102.11
  serum concentration, Min: 15.52
[4]; two 70 mg nasal doses, second approximately 10 minutes after first, Time 11.5, in ng/mL
  serum concentration, Max: 215.35
